The results in this text go back to US20240059698A1 (Accutar Biotechnology Inc., priority 2022, published 2024).

Test [1] concerns HCC827-SVD cells (human EGFR exon 20 insertion mutant D770_N771insSVD). The experiment in a line: Cell growth inhibition (CellTiter-Glo), HCC827-SVD. The class given is cell-based. To be noted: 72 h, 3 days. On the procedure: (§1) Generation of HCC827-SVD, HCC827-ASV, and HCC827-YVMA cell lines. The HCC827-SVD cell line was generated by first transducing HCC827 cells (ATCC) with lentiviral particles expressing codon-optimized human EGFR exon 20 insertion mutant D770_N771insSVD, and then selecting under 5 µg/mL puromycin treatment for a week. The resulting cells were further transduced with lentiviral particles carrying EGFR sgRNA and CAS9 to knockout the endogenous alleles of EGER and then selected under 500 µg/mL hygromycin B treatment for two weeks. The limiting dilution approach was used to subsequently generate the single clone of the HCC827-SVD stable cell line. Endogenous EGFR knockout was confirmed by Sanger sequencing of cell genomic DNA, and expression of exogenous mutant EGFR was verified by Western blot analysis.
(§2) 2. Cell Growth Inhibition for HCC827, HCC827-SVD, HCC827-ASV, HCC827-YVMA, and A431.
(§3) HCC827(ATCC), HCC827-SVD, HCC827-ASV, and HCC827-YVMA cells were seeded in 96-well plates at 5000 cells/well in 90 μL of RPMI growth medium containing 10% FBS and 1% Penicillin Streptomycin. A431 (ATCC) cells were seeded in 96-well plates at 5000 cells/well in 90 μL of DMEM growth medium containing 10% FBS and 1% Penicillin Streptomycin. Cells were incubated at 37° C. overnight and then administered with 10 μL 10× test compounds prepared in the growth medium at various concentrations. After administration of the compounds, cells were incubated at 37° C. for 3 days. Before the CellTiter-Glo assay, the plates were equilibrated at room temperature for approximately 30 minutes. 100 ul of CellTiter-Glo reagent (Promega) was added to each well. The plates were then incubated at room temperature for 10 minutes and luminescence was recorded by the EnSight® multimode plate reader (PerkinElmer). Table 7 listed selected compounds in cellular growth assay.
For orientation: ATP-based viability assays read luminescence as a measure of living cells.

Test [2] has as its system HCC827-YVMA cells (human ERBB2 exon20 insertion mutant A775_G776ins YVMA). The experiment in a line: Cell growth inhibition (CellTiter-Glo), HCC827-YVMA. The format is cell-based. To be noted: 72 h, HCC827-YVMA cells, 3 days, CellTiter-Glo, read-out: Cell growth inhibition, GI50 (nM) HCC827-YVMA. The protocol:
as §1
HCC827-ASV and HCC827-YVMA cell lines were generated in a similar approach as HCC827-SVD, except that HCC827 cells (ATCC) were first transduced with lentiviral particles expressing codon-optimized human EGFR exon 20 insertion mutant V769_D770insASV and human ERBB2 exon20 insertion mutant A775_G776ins YVMA, respectively.
as §2, §3

Structures are written as SMILES.

For orientation: GI50 means the concentration that inhibits growth by half. Regarding `C=CC(=O)N1CCC(c2c[nH]c3ncnc(Nc4ccc(CN(C)c5cnccn5)c(Cl)c4)c23)CC1` [Compound 54, 1-(4-(4-((3-chloro-4-((methyl(pyrazin-2-yl)amino)methyl)phenyl)amino)-7H-pyrrolo[2,3-d]pyrimidin-5-yl)piperidin-1-yl)prop-2-en-1-one], the GI50 in test [1] and in test [2] was less than 50 nM in each case.
On to `C=CC(=O)N1CCC(c2c[nH]c3ncnc(Nc4ccc(OCC(=O)NC(C)C)c(Cl)c4)c23)CC1` [Compound 55, 2-(4-((5-(1-acryloylpiperidin-4-yl)-7H-pyrrolo[2,3-d]pyrimidin-4-yl)amino)-2-chlorophenoxy)-N-isopropylacetamide], for which the GI50 in test [1] and in test [2] was less than 50 nM in each case.
For `C=CC(=O)N1CCC(c2c[nH]c3ncnc(Nc4ccc(Oc5ccnc(NC6(C)CC6)c5)cc4F)c23)CC1` [Compound 56, 1-(4-(4-((2-fluoro-4-((2-((1-methylcyclopropyl)amino)pyridin-4-yl)oxy)phenyl)amino)-7H-pyrrolo[2,3-d]pyrimidin-5-yl)piperidin-1-yl)prop-2-en-1-one], the GI50 in test [1] and in test [2] was 200 to 1000 nM in each case.
As to `C=CC(=O)N1CCC(c2c[nH]c3ncnc(Nc4ccc(Oc5ccnc(N6CCC(C)(F)C6)c5)cc4F)c23)CC1` (stereo not drawn) [Compound 57, 1-[4-[4-[2-fluoro-4-[[2-(3-fluoro-3-methyl-pyrrolidin-1-yl)-4-pyridyl]oxy]anilino]-7H-pyrrolo[2,3-d]pyrimidin-5-yl]-1-piperidyl]prop-2-en-1-one], the GI50 in test [1] and in test [2] was 200 to 1000 nM each time.
As to `C=CC(=O)N1CCC(c2c[nH]c3ncnc(Nc4ccc(Oc5ccnc(NCC(F)(F)F)c5)cc4F)c23)CC1` [Compound 58, 1-(4-(4-((2-fluoro-4-((2-((2,2,2-trifluoroethyl)amino)pyridin-4-yl)oxy)phenyl)amino)-7H-pyrrolo[2,3-d]pyrimidin-5-yl)piperidin-1-yl)prop-2-en-1-one], the results for the GI50 in test [1] and in test [2] were 200 to 1000 nM and 50 to 200 nM, respectively.
Consider `C=CC(=O)N1CCC(c2c[nH]c3ncnc(Nc4ccc(Oc5ccnc(Nc6ncc[nH]6)c5)cc4F)c23)CC1` [Compound 59, 1-(4-(4-((4-((2-((1H-imidazol-2-yl)amino)pyridin-4-yl)oxy)-2-fluorophenyl)amino)-7H-pyrrolo[2,3-d]pyrimidin-5-yl)piperidin-1-yl)prop-2-en-1-one], for which the GI50 in test [1] is more than 1000 nM; in test [2], 50 to 200 nM.
`C=CC(=O)N1CCC(c2c[nH]c3ncnc(Nc4ccc(OCc5cnn6c5CCCC6)c(Cl)c4)c23)CC1` [Compound 60, 1-(4-(4-((3-chloro-4-((4,5,6,7-tetrahydropyrazolo[1,5-a]pyridin-3-yl)methoxy)phenyl)amino)-7H-pyrrolo[2,3-d]pyrimidin-5-yl)piperidin-1-yl)prop-2-en-1-one]: the values for the GI50 in test [1] and in test [2] were 50 to 200 nM and 200 to 1000 nM, respectively.
`C=CC(=O)N1CCC(c2c[nH]c3ncnc(Nc4ccc(Oc5ccnc(-n6cc(F)cn6)c5)cc4F)c23)CC1` [Compound 61, 1-(4-(4-((2-fluoro-4-((2-(4-fluoro-1H-pyrazol-1-yl)pyridin-4-yl)oxy)phenyl)amino)-7H-pyrrolo[2,3-d]pyrimidin-5-yl)piperidin-1-yl)prop-2-en-1-one]: the concentration for 50% growth inhibition (GI50) was more than 1000 nM in test [1] and 200 to 1000 nM in test [2].
As for `C=CC(=O)N1CCC(c2c[nH]c3ncnc(Nc4ccc(OCc5nc(CNc6ncn(C)n6)cs5)c(Cl)c4)c23)CC1` [Compound 62, 1-(4-(4-((3-chloro-4-((4-(((1-methyl-1H-1,2,4-triazol-3-yl)amino)methyl)thiazol-2-yl)methoxy)phenyl)amino)-7H-pyrrolo[2,3-d]pyrimidin-5-yl)piperidin-1-yl)prop-2-en-1-one], the figures for the 50% growth inhibitory concentration (GI50) in test [1] and in test [2] were 200 to 1000 nM and 50 to 200 nM, respectively.
